# Results taken from US8242087B2, “Phosphate modified nucleosides useful as substrates for polymerases and as antiviral agents” (priority 2007, dated 2012).
# How the values were obtained:
# HIV RT = biological target: T1, HIV RT (Human immunodeficiency virus type 1 group M subtype B, UniProt P03366); test: Primer extension by HIV RT (P1/T3, P1/T5); assay type: biochemical, HIV-1; conditions: one hour, 500 μM
# T1 construct: HIV RT polymerase was purchased from GE Healthcare; purchased GE Healthcare (Amersham Bioscience)
# Procedure: (§1) A typical single nucleotide incorporation and primer extension assays using HIV RT polymerase was carried out similar to one described in the literature. HIV RT polymerase was purchased from GE Healthcare and was supplied as either 12 or 30 U/μL stock solution. The final concentration of HIV RT in a reaction mixture was 0.03-0.003 U/μL. A primer/template duplex mixture was prepared by combining appropriate amounts of a 5′-^33P-labeled primer (P1) and a template in 1:2 molar ratio to provide a 4× solution with 0.5 μM primer concentration. The polymerase reactions were carried out in a 5×RT buffer containing 250 mM TRIS.HCL, 250 mM KCl, 50 mM MgCl2, 2.5 mM spermidine, 50 mM DTT, pH 8.3. For the single nucleotide incorporation assay, a P1/T1 primer-template pair was used whereas the primer extension study was performed with P1/T3 and P1/T5 primer-template pairs.
# Primer extension study with HIV RT and Therminator DNA polymerase was performed in a fashion similar to the single nucleotide incorporation experiments. Two sets of primer/template complexes were used: P1/T3 and P1/T5.
# [1] = biological target: T2, Therminator DNA polymerase (Thermococcus sp., UniProt Q56366, A485L/D141A/E143A); test: Single nucleotide incorporation by Therminator DNA polymerase; assay type: biochemical, (9° N-7) Thermococcus sp.; conditions: single nucleotide incorporation, P1/T1
# T2 construct: purchased Westburg (NEB)
# Procedure: In the case of Therminator DNA polymerase, the enzyme was obtained from Westburg (NEB) (2 U/μL) and the reactions were carried out in a 10× Thermopol reaction buffer containing 20 mM TRIS.HCl, 10 mM KCl, 2 mM MgSO4, 0.1% Triton X-100, pH 8.8. The final concentration of the Therminator DNA pol in the reaction mixture was 8.33×10^−4 U/μL. The polymerase reaction involving Therminator DNA polymerase or any other thermostable polymerase (Vent (exo^−), Taq DNA polymerase) was carried out in a similar way as the HIV RT reaction with some modifications. The dNTP solutions and the primer/template/DNA polymerase mixture solutions were topped with mineral oil (30-60 μL) and pre-incubated at 70° C. for 2 minutes. The polymerase reactions were performed at 70° C. as well.
# [2] = biological target: T3, HIV reverse transcriptase (HIV RT) (Human immunodeficiency virus type 1 group M subtype B, UniProt P03366); test: Single nucleotide incorporation by HIV RT, gel-based, P1/T1 (Examples 2-3); assay type: biochemical, HIV-1; conditions: same conditions (500 μM, 60 min)
# T3 construct: HIV RT polymerase was purchased from GE Healthcare; purchased GE Healthcare (Amersham Bioscience)
# Procedure: as §1
# Briefly, a mixture containing 5 μL of the 4× primer/DNA duplex solution and 5 μL of 4× polymerase solution was pre-incubated at 37° C. for 2 minutes to ensure formation a DNA polymerase/DNA duplex complex. Simultaneously, 2× solutions of dNTP to provide final concentrations of 100 μM, 200 μM, 500 μM and 1 mM were also pre-incubated at 37° C. for 2 minutes as well. The polymerase reaction in a total volume of 20 μL was initiated by addition of 10 μL of the 2× dNTP solution to the DNA polymerase/DNA duplex mixture. The reactions were run at 37° C. and aliquots (2.5 μL) were removed at specified time points and mixed with 10 μL of a quenching buffer containing 80% formamide, 2 mM EDTA, 1×TBE. Quenched reactions were analyzed by loading 2 μL of a reaction sample onto a 20% denaturing polyacrylamide:gel (19:1 acrylamide:bisacrylamide, 7M urea, 0.4 mm×30 cm×40 cm) made in 1×TBE buffer (90 mM Tris-borate, 2 mM EDTA, pH 8.3). The gel was pre-equilibrated for 2 hours before loading and the reactions were run along with a tracking dye marker containing bromophenol blue (BB) and xylene cyanol (XC) until the BB dye had run ⅔ of the total gel length. For visualization, gels were scanned using a Cyclone Phosphoroimager.
# [3] = biological target: T4, HIV-1 Reverse Transcriptase (Human immunodeficiency virus type 1 group M subtype B, UniProt P03366); test: Single incorporation into P1T1 by HIV-1 Reverse Transcriptase (Examples 6, 7, 9); assay type: biochemical
# T4 construct: performed with the enzyme HIV-1 RT (Ambion, 10 U/μL stock solution); purchased Ambion
# Procedure: HIV-1 Reverse Transcriptase serves, in the HIV-1 viral replication process, as a catalyst and uses deoxynucleotides as substrates. This polymerase is error-prone and thus has a high mutation rate. Here, we evaluated the capacity to incorporate a deoxyadenosine nucleoside into the primer-template complex P1T1 using HIV-1 RT, and some of the above described illustrative compounds of the invention, carrying different leaving groups, as substrates. The initial screening was carried out using a template with an overhang of one thymidine nucleotide followed by three non-pyrimidine bases (Table 1). Incorporation efficiency was analysed by the polyacrylamide gel-based single nucleotide incorporation assay.
# End-labeled primer was annealed to its template by combining primer and template in a molar ratio of 1:2 and heating the mixture to 70° C. for 10 minutes followed by slow cooling to room temperature over a period of 1.5 hour. For the incorporation of 1, 2, 3, 4, 5 and 6, a series of 20 μL-batch reactions was performed with the enzyme HIV-1 RT (Ambion, 10 U/μL stock solution, specific activity 8.095 U/mg, concentration 1.2 mg/mL). The final mixture contained 125 nM primer template complex, RT buffer (250 mM Tris.HCl, 250 mM KCl, 50 mM MgCl2, 2.5 mM spermidine, 50 mM dithiothreitol (DTT); pH 8.3), 0.025 U/μL HIV-1 RT, and different concentrations of phosphoramidate or phosphodiester building blocks (1 mM, 500 μM, 200 μM and 100 μM respectively). In the case of the aromatic phosphate-modified nucleosides 23 and 24, the range of concentrations was limited to 1 mM. In the control reaction with the natural nucleotide, a 10 μM dATP concentration was used. The mixture was incubated at 37° C. and 2.5 μL aliquots were quenched after 5, 10, 20, 30, 60 and 120 minutes.
# T2 sequence (Q56366 whole entry D141A/E143A/A485L): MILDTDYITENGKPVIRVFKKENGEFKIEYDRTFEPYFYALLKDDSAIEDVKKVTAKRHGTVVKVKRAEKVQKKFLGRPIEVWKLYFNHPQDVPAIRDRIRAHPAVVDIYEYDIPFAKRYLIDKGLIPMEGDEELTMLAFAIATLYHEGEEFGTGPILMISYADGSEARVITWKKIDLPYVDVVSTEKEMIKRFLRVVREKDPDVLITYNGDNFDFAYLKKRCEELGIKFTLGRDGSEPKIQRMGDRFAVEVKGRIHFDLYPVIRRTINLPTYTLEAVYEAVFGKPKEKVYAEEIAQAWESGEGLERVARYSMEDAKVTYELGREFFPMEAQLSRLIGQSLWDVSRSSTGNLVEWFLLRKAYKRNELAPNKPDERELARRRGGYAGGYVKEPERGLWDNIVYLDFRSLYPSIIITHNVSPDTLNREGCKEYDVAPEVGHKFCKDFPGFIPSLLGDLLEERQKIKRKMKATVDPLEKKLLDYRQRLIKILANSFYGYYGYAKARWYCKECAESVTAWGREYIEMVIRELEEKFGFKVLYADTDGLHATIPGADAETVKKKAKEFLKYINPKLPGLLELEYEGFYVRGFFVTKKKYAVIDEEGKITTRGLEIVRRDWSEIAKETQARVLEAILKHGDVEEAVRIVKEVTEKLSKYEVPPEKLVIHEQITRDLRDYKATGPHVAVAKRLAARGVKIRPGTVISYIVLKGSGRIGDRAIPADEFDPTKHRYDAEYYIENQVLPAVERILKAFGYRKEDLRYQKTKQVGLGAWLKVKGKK
smiles,measurement,setting,value
"Nc1ncnc2c1ncn2[C@H]1C[C@H](O)[C@@H](COP(=O)(O)NCC2CO2)O1 (stereo partly drawn) [Compound 3, 2′-deoxy-adenosine-5′-glycidyl-phosphoramidate]",primer strand extension efficiency,HIV RT,low efficiency
same,incorporation as Therminator DNA polymerase substrate,[1],act effectively as alternative substrates
same,"incorporation, fold less efficient than Asp-dAMP",[2],6.5 fold
"Nc1ncnc2c1ncn2[C@H]1C[C@H](O)[C@@H](COP(=O)(O)Nc2cc(C(=O)O)cc(C(=O)O)c2)O1 [Compound 23, 2′-deoxyadenosine-5′(5-aminoisophthalic acid) phosphoramidate]",recognition as substrate,[3]; 1 mM,less well recognized as substrate
"Nc1ncnc2c1ncn2[C@H]1C[C@H](O)[C@@H](COP(=O)(O)Oc2ccc(C(=O)O)c(C(=O)O)c2)O1 [Compound 24, 2′-deoxyadenosine-5′-(4-hydroxy-phthalic acid) phosphodiester]",conversion to an n+1 strand,"[3]; 2 hours, 1 mM concentration",13%
"Nc1ncnc2c1ncn2[C@H]1C[C@H](O)[C@@H](COP(=O)(O)OCC(=O)O)O1 [GA-dAMP, 2′-deoxyadenosine-5′-(glycolic acid) phosphodiester]",n+1 formation,[3]; 500 μM,up to 68%
